Results as given in ChEMBL document CHEMBL1201862, “PubChem BioAssay data set” (2004).
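Each compound was tested at five concentrations against cells in 96-well plates for 48 hours. The concentration for 50% growth inhibition is given as GI50.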 Calls of active or inactive are those of the source. Cut-off read from the data, not from the text of the source: active = GI50 up to about 1.1 µM and inactive = higher.

What was measured:
Experiment in all cases: growth of human tumour cells (NCI), 48 h
786-0 = system: 786-0
HOP-62 = system: HOP-62
HOP-92 = system: HOP-92
HT-29 = system: HT-29
K562 = system: K562
M14 = system: M14
NCI-H226 = system: NCI-H226
NCI-H522 = system: NCI-H522
OVCAR-8 = system: OVCAR-8
SF-268 = system: SF-268
SF-539 = system: SF-539
SN12C = system: SN12C
SR = system: SR
SW-620 = system: SW-620
U-251 = system: U-251
UO-31 = system: UO-31

Structure (SMILES)	GI50 (786-0)	GI50 (HOP-62)	GI50 (HOP-92)	GI50 (HT-29)	GI50 (K562)	GI50 (M14)	GI50 (NCI-H226)	GI50 (NCI-H522)	GI50 (OVCAR-8)	GI50 (SF-268)	GI50 (SF-539)	GI50 (SN12C)	GI50 (SR)	GI50 (SW-620)	GI50 (U-251)	GI50 (UO-31)
O=C(c1c(O)cc(O)cc1O)C1Cc2ccccc21 (stereo not drawn)	31.8 µM (inactive)	45.2 µM (inactive)	19.1 µM (inactive)	> 100 µM (inactive)	68.1 µM (inactive)	> 100 µM (inactive)	> 100 µM (inactive)	10.3 µM (inactive)	39.2 µM (inactive)	53.1 µM (inactive)	32.2 µM (inactive)	> 100 µM (inactive)	> 100 µM (inactive)	> 100 µM (inactive)	47.2 µM (inactive)	58.3 µM (inactive)
Cc1c2cc[n+](C)cc2c(C)c2c1[nH]c1ccc(OCC(F)(F)F)cc12	0.378 µM (active)	0.789 µM (active)	2.43 µM (inactive)	2.28 µM (inactive)	2.65 µM (inactive)	–	0.499 µM (active)	1.63 µM (inactive)	0.798 µM (active)	0.376 µM (active)	1.25 µM (inactive)	0.277 µM (active)	2.67 µM (inactive)	3.35 µM (inactive)	0.256 µM (active)	–
O=C(Nc1c(O)[nH]c(=S)[nH]c1=O)c1ccccn1	> 100 µM (inactive)	> 100 µM (inactive)	39.1 µM (inactive)	> 100 µM (inactive)	> 100 µM (inactive)	> 100 µM (inactive)	> 100 µM (inactive)	> 100 µM (inactive)	> 100 µM (inactive)	> 100 µM (inactive)	> 100 µM (inactive)	> 100 µM (inactive)	> 100 µM (inactive)	> 100 µM (inactive)	> 100 µM (inactive)	> 100 µM (inactive)
CNC(=O)OCc1nc(SSc2nc(COC(=O)NC)c(COC(=O)NC)n2C)n(C)c1COC(=O)NC	> 100 µM (inactive)	> 100 µM (inactive)	> 100 µM (inactive)	> 100 µM (inactive)	> 100 µM (inactive)	> 100 µM (inactive)	> 100 µM (inactive)	> 100 µM (inactive)	> 100 µM (inactive)	> 100 µM (inactive)	> 100 µM (inactive)	> 100 µM (inactive)	> 100 µM (inactive)	> 100 µM (inactive)	> 100 µM (inactive)	> 100 µM (inactive)
CC(=O)c1c2c(cc3c1CC1(C3)Cc3cc4c(c(C(C)=O)c3C1)CCC4)CCC2	> 100 µM (inactive)	> 100 µM (inactive)	> 100 µM (inactive)	> 100 µM (inactive)	38 µM (inactive)	> 100 µM (inactive)	–	> 100 µM (inactive)	> 100 µM (inactive)	> 100 µM (inactive)	> 100 µM (inactive)	> 100 µM (inactive)	> 100 µM (inactive)	> 100 µM (inactive)	> 100 µM (inactive)	> 100 µM (inactive)
CC(=O)N1CCC2(c3ccccc3N(C(C)=O)C2c2ccc(O)cc2)C1C(=O)O (stereo not drawn)	> 100 µM (inactive)	> 100 µM (inactive)	> 100 µM (inactive)	> 100 µM (inactive)	> 100 µM (inactive)	> 100 µM (inactive)	> 100 µM (inactive)	> 100 µM (inactive)	> 100 µM (inactive)	> 100 µM (inactive)	> 100 µM (inactive)	> 100 µM (inactive)	> 100 µM (inactive)	> 100 µM (inactive)	> 100 µM (inactive)	> 100 µM (inactive)
CC(SC(=O)Nc1ccc(/N=N/c2ccccc2)cc1)C(=O)O (stereo not drawn)	79.8 µM (inactive)	> 100 µM (inactive)	–	68.4 µM (inactive)	> 100 µM (inactive)	> 100 µM (inactive)	> 100 µM (inactive)	68.4 µM (inactive)	57 µM (inactive)	17.3 µM (inactive)	88.5 µM (inactive)	> 100 µM (inactive)	49 µM (inactive)	> 100 µM (inactive)	> 100 µM (inactive)	68.7 µM (inactive)
COC(=O)C1=C(C(=O)OC)C2(C3C(SC)=CC(C)(C)CC3S1)N(Cc1ccccc1)CCN2Cc1ccccc1 (stereo not drawn)	> 100 µM (inactive)	> 100 µM (inactive)	< 0.01 µM (active)	> 100 µM (inactive)	62.7 µM (inactive)	> 100 µM (inactive)	> 100 µM (inactive)	> 100 µM (inactive)	> 100 µM (inactive)	> 100 µM (inactive)	> 100 µM (inactive)	> 100 µM (inactive)	–	> 100 µM (inactive)	> 100 µM (inactive)	> 100 µM (inactive)
Cc1ccc(S(=O)(=O)C(CC(=O)N2CCCC2)C(=O)c2ccccc2)cc1 (stereo not drawn)	> 100 µM (inactive)	> 100 µM (inactive)	> 100 µM (inactive)	> 100 µM (inactive)	24.9 µM (inactive)	> 100 µM (inactive)	–	89.3 µM (inactive)	> 100 µM (inactive)	83.4 µM (inactive)	> 100 µM (inactive)	> 100 µM (inactive)	25.5 µM (inactive)	37.7 µM (inactive)	> 100 µM (inactive)	> 100 µM (inactive)
N#COc1ccc(Oc2ccccc2)cc1	34.6 µM (inactive)	55.7 µM (inactive)	43.8 µM (inactive)	72.4 µM (inactive)	48.4 µM (inactive)	58.7 µM (inactive)	> 100 µM (inactive)	34.7 µM (inactive)	49.5 µM (inactive)	75.2 µM (inactive)	26.8 µM (inactive)	62.4 µM (inactive)	24.3 µM (inactive)	–	42.7 µM (inactive)	50.9 µM (inactive)
CNCCCCN(C)/[N+]([O-])=N\O	> 100 µM (inactive)	> 100 µM (inactive)	> 100 µM (inactive)	> 100 µM (inactive)	> 100 µM (inactive)	> 100 µM (inactive)	> 100 µM (inactive)	> 100 µM (inactive)	> 100 µM (inactive)	> 100 µM (inactive)	> 100 µM (inactive)	> 100 µM (inactive)	–	> 100 µM (inactive)	> 100 µM (inactive)	> 100 µM (inactive)
O=C1CCC2(c3ccc(Cl)cc3)Nc3ncccc3N12 (stereo not drawn)	> 100 µM (inactive)	> 100 µM (inactive)	> 100 µM (inactive)	> 100 µM (inactive)	> 100 µM (inactive)	> 100 µM (inactive)	> 100 µM (inactive)	> 100 µM (inactive)	> 100 µM (inactive)	> 100 µM (inactive)	> 100 µM (inactive)	> 100 µM (inactive)	–	> 100 µM (inactive)	> 100 µM (inactive)	> 100 µM (inactive)
O=C(Cc1nc2ccccc2s1)Nc1ccc(Cl)cc1	> 100 µM (inactive)	> 100 µM (inactive)	–	> 100 µM (inactive)	38.9 µM (inactive)	77.1 µM (inactive)	> 100 µM (inactive)	> 100 µM (inactive)	> 100 µM (inactive)	> 100 µM (inactive)	> 100 µM (inactive)	> 100 µM (inactive)	> 100 µM (inactive)	> 100 µM (inactive)	> 100 µM (inactive)	> 100 µM (inactive)
